Each molecule was assayed against T1, cloned human CCR8 receptor stably expressed in L1.2 cells (Homo sapiens, UniProt P51685) (assay: whole cell binding screen: inhibition of biotinylated human I309 binding to CCR8 (FMAT 8100 HTS)). Conditions: Ki of compounds to inhibit I-309 binding to CCR8, L1.2/hCCR8 cells, biotinylated human I-309, 10 point concentration response starting at 10 μM.
T1 construct: expressed in transfected cells
T1 sequence (P51685 whole entry): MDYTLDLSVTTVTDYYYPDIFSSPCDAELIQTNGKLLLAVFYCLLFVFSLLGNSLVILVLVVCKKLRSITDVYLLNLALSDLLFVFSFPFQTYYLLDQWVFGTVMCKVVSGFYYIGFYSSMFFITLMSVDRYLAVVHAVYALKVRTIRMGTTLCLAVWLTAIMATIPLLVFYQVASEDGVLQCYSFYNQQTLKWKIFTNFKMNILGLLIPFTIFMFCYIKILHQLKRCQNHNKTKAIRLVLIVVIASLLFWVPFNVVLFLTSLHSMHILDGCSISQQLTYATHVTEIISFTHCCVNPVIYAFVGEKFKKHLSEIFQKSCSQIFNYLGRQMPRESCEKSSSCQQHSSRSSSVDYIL
Text: This whole cell binding screen evaluates the ability of compounds to inhibit biotinlyated human I309 binding to the cloned human CCR8 receptor stably expressed in L1.2 cells. Human CCR8 gene was amplified by PCR using PFU polymerase under standard conditions from human genomic DNA purchased from Stratagene. The PCR primers used were:
The 5′ and 3′ primers contained flanking enzyme sites (Bam Hi and Not 1,respectively), which were used to subclone the gene into pcDNA3.1. […] The CCR8 vector was then transfected into L1.2 cells (murine pre-B cells) by electroporation.
Compounds were screened using the FMAT™ 8100 HTS System (purchased from Applied Biosystems).
A suspension was prepared of L1.2/hCCR8 cells at 4.0×10^5 cells/mL in a binding buffer (Buffer consisting of Hanks Balanced Salt Solution (without phenol red), 10 mM HEPES, 0.1% Fatty Acid Free BSA, 0.02% Sodium Azide).
Dilution series of 10 mM stock concentrations of the test compounds were prepared in DMSO and further diluted into binding buffer defined above) to three times the final assay concentration.
10 point concentration response curve is constructed for each compound, starting at 10 μM (final assay concentration in Binding Buffer). […] The components were mixed in wells by covering the plate with aluminum foil and rotating for 0.5 hours. […] Average fluorescence reported for each concentration was normalized to percent inhibition based on negative (no inhibitor) and positive (100 nM excess unlabeled I309 (R and D Systems)) controls.
CCOC(=O)N1CCC(NS(=O)(=O)c2ccc(C(=O)NC3CCCCC3)c3ccccc23)CC1 [Compound F-3, 4-(4-Cyclohexylcarbamoyl-naphthalene-1-sulfonylamino)-piperidine-1-carboxylic acid ethyl ester] gave a Ki of under 500 nM. Cc1ccccc1C(=O)Nc1ccc(S(=O)(=O)NC2CCN(C(=O)N(C)C)CC2)c2ccccc12 [Compound C-47, 4-[4-(2-Methyl-benzoylamino)-naphthalene-1-sulfonylamino]-piperidine-1-carboxylic acid dimethylamide] showed a Ki of under 500 nM. Molecule Cc1ccccc1C(=O)Nc1ccc(S(=O)(=O)NC2CCN(C(=O)NC(C)C)CC2)c2ccccc12 [Compound C-46, 4-[4-(2-Methyl-benzoylamino)-naphthalene-1-sulfonylamino]-piperidine-1-carboxylic acid isopropylamide] has a Ki of under 500 nM.

Same assay, conditions: L1.2/hCCR8 cells, biotinylated human I-309, 10 point concentration response starting at 10 μM; read-out: Ki of compounds to inhibit I-309 binding to CCR8
For Cc1ccccc1C(=O)Nc1ccc(S(=O)(=O)N[C@H]2CCN(C(=O)[C@H](C)N)C[C@H]2C)c2ccccc12 [Compound J-5, (3R, 4S)-N-{4-[1-(2-(S)-Amino-propionyl)-3-methyl-piperidin-4-ylsulfamoyl]-naphthalen-1-yl}-2-methyl-benzamide], the Ki was under 500 nM. In the case of Cc1ccccc1C(=O)Nc1ccc(S(=O)(=O)NC2CCN(C(=O)OC(C)C)CC2)c2c1CCCC2 [Compound E-16, 4-[4-(2-Methyl-benzoylamino)-5,6,7,8-tetrahydro-naphthalene-1-sulfonylamino]-piperidine-1-carboxylic acid isopropyl ester], the Ki is reported as under 500 nM. In the case of Cc1ccccc1C(=O)Nc1ccc(S(=O)(=O)N[C@@H]2CCN(Cc3ccccc3)C[C@H]2C)c2ccccc12 (racemic) [Compound A-23, (±)-trans-N-[4-(1-Benzyl-3-methyl-piperidin-4-ylsulfamoyl)-naphthalen-1-yl]-2-methyl-benzamide], the Ki is reported as under 500 nM. For O=C(Nc1cccc2ccc(S(=O)(=O)Nc3ccc(F)cc3)cc12)c1ccccc1 [Compound H-48, N-[7-(4-Fluoro-phenylsulfamoyl)-naphthalen-1-yl]-benzamide], the Ki was under 30000 nM. In the case of CCOC(=O)N1CCC(NS(=O)(=O)c2ccc(NC(=O)C3CCCCC3)c3c2CCCC3)CC1 [Compound E-6, 4-(4-(Cyclohexanecarbonyl-amino)-5,6,7,8-tetrahydro-naphthalene-1-sulfonylamino)-piperidine-1-carboxylic acid ethyl ester], the Ki is reported as under 500 nM. Cc1ccccc1C(=O)Nc1ccc(S(=O)(=O)NC2CCN(C(=O)OC(C)(C)C)C2)c2c1CCC2 (racemic) [Compound H-68, (±)-3-[7-(2-Methyl-benzoylandno)-indane-4-sulfonylamino]-pyrrolidine-1-carboxylic acid tert-butyl ester] was tested, and the Ki was under 500 nM. Work on Cc1ccccc1C(=O)Nc1ccc(S(=O)(=O)N[C@@H]2CCNC[C@H]2C)c2ccccc12 [Compound J-54] yielded a Ki of under 5000 nM. CCOC(=O)N1CCC(NS(=O)(=O)c2cccc3c(NC(=O)N4CCOCC4)cccc23)CC1 [Compound H-17, 4-{5-[(Morpholine-4-carbonyl)-amino]-naphthalene-1-sulfonylamino}-piperidine-1-carboxylic acid ethyl ester] showed a Ki of under 1000 nM. For O=C(Nc1ccc(S(=O)(=O)Nc2ccc(-c3ccccc3)cc2)c2ccccc12)c1ccccc1 [Compound A-29], the Ki was under 30000 nM. In the case of CCOC(=O)N1CCC(NS(=O)(=O)c2ccc(CNCc3ccoc3)c3ccccc23)CC1 [Compound G-14, 4-(4-{[(Furan-3-ylmethyl)-amino]-methyl}-naphthalene-1-sulfonylamino)-piperidine-1-carboxylic acid ethyl ester], the Ki is reported as under 500 nM. CC1CCCCC1NC(=O)c1cccc2c(S(=O)(=O)NC3CCN(C(=O)N(C)C)CC3)cccc12 (racemic) [Compound H-33, (±)-4-[5-(2-Methyl-cyclohexylcarbamoyl)-naphthalene-1-sulfonylamino]-piperidine-1-carboxylic acid dimethylamide] gave a Ki of under 500 nM. With CCCC(=O)N1C[C@@H](C)[C@@H](NS(=O)(=O)c2ccc(NC(=O)c3ccccc3C)c3ccccc23)[C@@H](C)C1 [Compound C-69, (±)-(cisscis)-N-[4-(1-Butyryl-3,5-dimethyl-piperidin-4-ylsulfamoyl)-naphthalen-1-yl]-2-methyl-benzamide] the Ki was under 1000 nM. CCOC(=O)N1CCC(NS(=O)(=O)c2cccc3c(CNCc4ccc(Cl)cc4)cccc23)CC1 [Compound H-45, 4-{5-[(4-Chloro-benzylamino)-methyl]-naphthalene-1-sulfonylamino}-piperidine-1-carboxylic acid ethyl ester] was tested, and the Ki was under 500 nM. For CCOC(=O)N1CCC(NS(=O)(=O)c2ccc(NC(=O)c3cccc(C)c3C)c3ccccc23)CC1 [Compound B-27], the Ki was under 500 nM. In the case of Cc1ccccc1C(=O)Nc1ccc(S(=O)(=O)N[C@@H]2CCN(C(=O)[C@H](C)N)C[C@H]2C)c2ccccc12 [Compound J-3, (3R, 4R)-N-{4-[1-(2-(S)-Amino-propionyl)-3-methyl-piperidin-4-ylsulfamoyl]-naphthalen-1-yl}-2-methyl-benzamide], the Ki is reported as under 500 nM. CC(C)(C)OC(=O)N1CCC(NS(=O)(=O)c2ccc(NC(=O)C3CCCCC3)c3ccccc23)CC1 [Compound B-19, 4-[4-(Cyclohexanecarbonyl-amno)-naphthalene-1-sulfonylamino]-piperidine-1-carboxylic acid tert-butyl ester] gave a Ki of under 500 nM. Work on CCOC(=O)N1CCC(NS(=O)(=O)c2cccc3c(C(=O)NC4CCCCC4)cccc23)CC1 [Compound H-25, 4-(5-Cyclohexylcarbamoyl-naphthalene-1-suffonylamino)-piperidine-1-carboxylic acid ethyl ester] yielded a Ki of under 1000 nM. CCOC(=O)N1CC[C@H](NS(=O)(=O)c2ccc(NC(=O)c3ccccc3C)c3c2CCCC3)[C@H](C)C1 (racemic) [Compound E-21, (±)-cis-3-Methyl-4-[4-(2-methyl-benzoylamino)-5,6,7,8-tetrahydro-naphthalene-1-sulfonylamino]-piperidine-1-carboxylic acid ethyl ester] gave a Ki of under 500 nM. With CCCC(=O)N1CCC(NS(=O)(=O)c2ccc(C(=O)NC3CCOCC3)c3ccccc23)CC1 [Compound F-24, 4-(1-Butyryl-piperidin-4-ylsulfamoyl)-naphthalene-1-carboxylic acid (tetrahydro-pyran-4-yl)-amide] the Ki was under 1000 nM. Molecule Cc1ccccc1C(=O)Nc1ccc(S(=O)(=O)NC2CCN(C(=O)[C@@H]3CCCN3C)CC2)c2ccccc12 [Compound C-124, (S)-2-Methyl-N-{4-[1-(1-methyl-pyrrolidine-2-carbonyl)-piperidin-4-ylsulfamoyl]-naphthalen-1-yl}-benzamide] has a Ki of under 500 nM. In the case of CCCC(=O)N1CCC(NS(=O)(=O)c2ccc(NC(=O)c3ccccc3C(F)(F)F)c3ccccc23)CC1 [Compound C-101, N-[4-(1-Butyryl-piperidin-4-ylsulfamoyl)-naphthalen-1-yl]-2-trifluoromethyl-benzamide], the Ki is reported as under 500 nM. CCCC(=O)N1CC[C@H](NS(=O)(=O)c2ccc(NC(=O)c3ccccc3C)c3ccccc23)[C@H](C)C1 (racemic) [Compound C-139, (±)-cis-N-[4-(1-Butryl-3-methyl-piperidin-4-ylsuffamoyl)-naphthalen-1-yl]-2-methyl-benzamide] was tested, and the Ki was under 500 nM. In the case of Cc1ccccc1C(=O)Nc1ccc(S(=O)(=O)NC2CCN(C(=O)OC(C)(C)C)CC2(C)C)c2ccccc12 (racemic) [Compound A-19, (±)-3,3-Dimethyl-4-[4-(2-methyl-benzoylamino)-naphthalene-0-sulfonylamino]-piperidine-1-carboxylic acid tert-butyl ester], the Ki is reported as under 500 nM. For O=C(Nc1ccc(S(=O)(=O)NC2CCNCC2)c2ccccc12)c1c(F)cccc1C(F)(F)F [Compound C-107, 2-Fluoro-N-[4-(piperidin-4-ylsulfamoyl)-naphthalen-1-yl]-6-trifluoromethyl-benzamide], the Ki was under 30000 nM. CCCC(=O)N1CCC(NS(=O)(=O)c2ccc(NC(=O)C3CCOCC3)c3ccccc23)CC1 [Compound D-20, Tetrahydro-pyran-4-carboxylic acid [4-(1-butyryl-piperidin-4-ylsulfamoyl)-naphthalen-1-yl]-amide] gave a Ki of under 500 nM. With Cc1ccccc1C(=O)Nc1ccc(S(=O)(=O)N[C@H]2CCN(C(=O)N(C)C)C[C@H]2C)c2ccccc12 (racemic) [Compound C-29, (±)-cis-3-Methyl-4-[4-(2-methyl-benzoylandno)-naphthalene-1-sulfonylamio]-piperidine-1-carboxylic acid dimethylamide] the Ki was under 500 nM. For O=C(Nc1cccc2c(S(=O)(=O)NC3CCN(C(=O)N4CCOCC4)CC3)cccc12)c1ccccc1 [Compound H-10], the Ki was under 500 nM. For CC(C)(C)OC(=O)N1CCC(NS(=O)(=O)c2ccc(NC(=O)c3cccnc3)c3ccccc23)CC1 [Compound B-20, 4-{4-[(Pyridine-3-carbonyl)-amino]-naphthalene-1-sulfonylamino}-piperidine-1-carboxylic acid tert-butyl ester], the Ki was under 1000 nM. Cc1ccccc1C(=O)Nc1ccc(S(=O)(=O)NC2CCCNC2)c2ccccc12 (racemic) [Compound C-112, (±)-2-Methyl-N-[4-(piperidin-3-ylsulfamoyl)-naphthalen-1-yl]-benzamide] was tested, and the Ki was under 1000 nM.
